Literature values in patent US20230000835A1, “LYSINE-SPECIFIC HISTONE DEMETHYLASE INHIBITORS FOR THE TREATMENT OF MYELOPROLIFERATIVE NEOPLASMS” (Imago Biosciences, Inc., priority 2019, published 2023).

Test system: primary myelofibrosis patients
Details: 50 to 100 mg/day in combination with prednisone; cited from earlier work

O=C1CCC(N2C(=O)c3ccccc3C2=O)C(=O)N1 (centres unmarked) [Thalidomide]
primary myelofibrosis patients with improved anemia and thrombocytopenia: approximately 60% | primary myelofibrosis patients with reduced spleen size: approximately 20%
